Source: patent US11866474B2, “Modulating angiogenesis by proteomimetics of vascular endothelial growth factor” (UNIVERSITY OF SOUTH FLORIDA, priority 2021, dated 2024)

Assays:
[1] = biological target: T1, VEGFR-1 extracellular domain (Met 1-Asn 756) (Homo sapiens, UniProt P17948); assay: Surface plasmon resonance binding to VEGFR-1 extracellular domain; conditions: one-to-one binding model
T1 construct: VEGF-1 protein extracellular domain (Met 1-Asn 756); purchased Creative BioMart USA FLT1-3809H
Protocol: (§1) Surface plasmon resonance (SPR) assays were carried out to determine the binding affinities of the VEGF mimic sequences toward the extracellular domains of VEGFR-1 and VEGFR-2 (FIGS. 13 and 14).
(§2) Binding kinetics of VEGF mimics to VEGFR-1 were measured by surface plasmon resonance (SPR) using a Biacore T200 (General Electric Co.). […] protein extracellular domain (Met 1-Asn 756) (FLT1-3809H, Creative BioMart USA) was covalently coupled to CMS chip following manufacturer's instructions. Samples were prepared in RBS-EP+ buffer (pH 7.4) at different concentration and flowed over the sensor chip to interact with the immobilized protein, followed by the running buffer. The dissociation data was collected, and a different concentration was assayed after redundant samples were removed from the protein by treating with KCl (1 M). The final binding kinetics was obtained by fitting using the T200 software with a one-to-one binding model. Binding affinities of mimic sequences to VEGFR-2 were measured using VEGFR-2 extracellular domain (Met 1-Glu 764) (KDR-6966H, Creative BioMart USA) in a similar fashion.

[2] = biological target: T2, VEGFR-2 extracellular domain (Met 1-Glu 764) (Homo sapiens, UniProt P35968); assay: Surface plasmon resonance binding to VEGFR-2 extracellular domain; conditions: for Binding affinity (Kd) to VEGFR-2 as determined by SPR: extracellular domain, one-to-one binding model
T2 construct: VEGFR-2 extracellular domain (Met 1-Glu 764); purchased Creative BioMart USA KDR-6966H
Protocol: as §1, §2

HUVECs [3] = assay: Transwell cell migration assay; type: cell-based, human; conditions: 10 μM, in the presence of VEGF165 (50 ng/mL), 12 h
From the text: Endothelial cell migration is an essential component of angiogenesis mediated by the VEGF pathway and can be used to assess the effect of drugs on the VEGF pathway. A Transwell migration assay was used to test the effect of the mimic sequences on the migration of human umbilical endothelial cells (HUVECs). […] Given the findings that V2 has a much stronger binding affinity for VEGFR1 than VEGFR2 (FIG. 12), the inventors speculated that this stimulatory effect may be due to its specific binding to VEGFR1, the decoy receptor. It is plausible that inhibition of VEGF-A binding to VEGFR-1 leads to an increased level of VEGF-A to bind and activate VEGFR-2, an indirect activation of the main angiogenic receptor.67 Cell migration assay was performed in triplicates on Transwell permeable support, 8.0 μm pore (Corning, USA). […] Migrated cells at the bottom of the membrane were fixed with 4% paraformaldehyde and stained with Crystal Violet at 37° C. for 20 min and 10 min respectively and counted with Nikon Inverted Microscope ECLIPSE Ti-U.

HUVECs [4] = assay: Wound healing (scratch-wound motility) assay; type: cell-based, human; conditions: 10 μM, in the presence of VEGF165 (50 ng/mL), 24 h
Protocol: Wound healing is facilitated by the VEGF pathway's effect on cell migration and proliferation.14 The effect of the helical mimic sequences on cell migration and invasion was tested on HUVECs in the presence of VEGF165 using a scratch-wound motility assay. […] HUVEC cells (10^5) were seeded on a 12 well tissue culture plate and allowed to grow for 12 h. The attached cells were then scratched with a sterile […] pipette tip and treated with mimic sequences (10 μM) and/or VEGF165 (50 ng/mL) in serum free medium. […] The wound widths were measured by ImageJ (version 1.50).

HUVECs [5] = assay: Capillary tube formation assay; type: cell-based, human; conditions: 2 μM, in the presence of VEGF165 (50 ng/mL), 24 h
Protocol: The ultimate effect of angiogenesis is the formation of vasculature that can support healing, survival, and proliferation. Next, the inventors used HUVECs to investigate the effect of the AA peptide sequences on the formation of capillary-like tube structures in vitro in the presence of VEGF165. […] Nutrient starved HUVECs, for 24 h in 0.5% FBS (sEBM) endothelial basal medium (EBM), were harvested and resuspended in 10% FBS (mEGM) endothelial growth medium. Cells were then seeded in 48 well plate coated with basement membrane extract (BME). To prepare the plates, Costar48 well culture plates were coated with basement membrane (Corning Matrigel Basement Membrane Matrix LDEV-free, 354234) and incubated for 30 min at 37° C. 5×10^4 cells were seeded in each well and treated with VEGF mimic sequences and/or VEGF165, or left untreated. Formation or lack thereof of tube-like structures was monitored over a 24 h period with a Nikon Inverted Microscope ECLIPSE Ti-U.

VEGFR-2 (P-VEGFR-2) = assay: Western blot of VEGFR-2 phosphorylation in HUVEC lysates; type: cell-based, human; conditions: with VEGF-A stimulation
Protocol: (§3) The effect of VEGF-mimicking sequences on VEGF-A-mediated activation of Akt, a key VEGF downstream signal,^68 and VEGFR-2 was then examined by Western blot (FIG. 8). […] However, the activation of the VEGF pathway by V2 and QK is dependent on the presence of VEGF-A (FIG. 8E). […] HUVECs (1×10^6) were starved for 24 h and treated with a V1, V2, V3 and QK in the presence or absence of VEGF-A165 at 37° C. for 24 h. Cells were then lysed with a lysis buffer containing Protease and Phosphatase Inhibitor (Thermo Scientific) to obtain total cellular proteins, and the amount of protein was quantified using the BCA Protein Assay Kit (Thermo Scientific, Waltham, MA). Proteins were then denatured by boiling at 100° C. for 10 min in the sample buffer and separated by electrophoresis on 10% SDS-[…] minigels. Target proteins were transferred to polyvinylidene difluoride membranes and blocked with 5% BSA in TBST solution for 1 h and then washed three times with TBST (5 min each time). […]

Akt (P-AKT) = assay: Western blot of Akt phosphorylation in HUVEC lysates; type: cell-based, human; conditions: with VEGF-A stimulation
Protocol: as §3

VEGFR-1 = biological target: T3, VEGFR-1 (Homo sapiens, UniProt P17948); assay: Immunofluorescence binding assay with anti-VEGFR-1 antibody; type: cell-based; conditions: HUVECs treated with 10 μM, compared to control
T3 construct: immunofluorescence studies were carried out using HUVECs and antibodies specific to each receptor; endogenous in cells; host or cells: HUVEC
Protocol: (§4) On the basis of the assays conducted, the inventors speculated that distinct cell signaling and angiogenic response are due to the sequences V2 and V3 binding to different VEGFR subtypes. To further characterize the binding profiles of V2 and V3 to VEGFR-1 and VEGFR-2, immunofluorescence studies were carried out using HUVECs and antibodies specific to each receptor. Cells treated with V2 and V3 (10 μM) were fixed and treated with anti-VEGFR-1 and anti-VEGFR-2 antibodies, followed by FITC-labeled secondary antibody and a DAPI counterstain. […] HUVEC cells grown in m-Dish 35 mm, high Glass Bottom (#81158 Ibidi) were treated with V2 and V3 overnight at 37° C. Cells were then washed with TBST twice and fixed with 4% formaldehyde solution (Fisher Chemical) for 20 min at room temperature. This was followed by TBST wash twice and blocking with TBST—5% BSA blocking solution for 1 h at room temperature. After washing the cells with TBST three times, the cells were incubated with anti-VEGFR-1 antibody (Proteintech) and anti-VEGFR-2 antibody (Invitrogen) overnight at 4° C. […] A Nikon fluorescence microscope was used for imaging cells and image analysis was done with Image J software (ImageJ 5.53e, National Institute of Health, USA).

VEGFR-2 = biological target: T4, VEGFR-2 (Homo sapiens, UniProt P35968); assay: Immunofluorescence binding assay with anti-VEGFR-2 antibody; type: cell-based; conditions: HUVECs treated with 10 μM, compared to control
T4 construct: endogenous in cells; host or cells: HUVEC
Protocol: as §4

T2 sequence (P35968 20-764): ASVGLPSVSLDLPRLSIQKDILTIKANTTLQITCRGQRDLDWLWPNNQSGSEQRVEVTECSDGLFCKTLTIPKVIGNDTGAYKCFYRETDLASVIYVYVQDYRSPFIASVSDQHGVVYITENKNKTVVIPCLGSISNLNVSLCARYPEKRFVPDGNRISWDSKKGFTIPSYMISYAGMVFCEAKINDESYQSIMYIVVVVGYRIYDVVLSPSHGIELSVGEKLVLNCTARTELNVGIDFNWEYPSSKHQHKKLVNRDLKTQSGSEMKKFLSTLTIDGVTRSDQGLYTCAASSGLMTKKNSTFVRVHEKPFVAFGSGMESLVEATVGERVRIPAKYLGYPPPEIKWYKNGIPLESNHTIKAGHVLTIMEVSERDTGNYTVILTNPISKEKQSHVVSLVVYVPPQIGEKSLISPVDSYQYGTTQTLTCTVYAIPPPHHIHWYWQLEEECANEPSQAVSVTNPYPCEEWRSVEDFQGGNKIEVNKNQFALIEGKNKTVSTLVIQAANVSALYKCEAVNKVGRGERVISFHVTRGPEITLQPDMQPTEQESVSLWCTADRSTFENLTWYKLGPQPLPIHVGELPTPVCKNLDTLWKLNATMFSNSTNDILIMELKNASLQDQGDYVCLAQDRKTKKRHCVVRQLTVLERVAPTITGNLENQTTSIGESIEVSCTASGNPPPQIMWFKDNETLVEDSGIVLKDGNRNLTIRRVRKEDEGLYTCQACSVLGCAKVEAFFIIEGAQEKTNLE
T1 sequence (P17948 27-756): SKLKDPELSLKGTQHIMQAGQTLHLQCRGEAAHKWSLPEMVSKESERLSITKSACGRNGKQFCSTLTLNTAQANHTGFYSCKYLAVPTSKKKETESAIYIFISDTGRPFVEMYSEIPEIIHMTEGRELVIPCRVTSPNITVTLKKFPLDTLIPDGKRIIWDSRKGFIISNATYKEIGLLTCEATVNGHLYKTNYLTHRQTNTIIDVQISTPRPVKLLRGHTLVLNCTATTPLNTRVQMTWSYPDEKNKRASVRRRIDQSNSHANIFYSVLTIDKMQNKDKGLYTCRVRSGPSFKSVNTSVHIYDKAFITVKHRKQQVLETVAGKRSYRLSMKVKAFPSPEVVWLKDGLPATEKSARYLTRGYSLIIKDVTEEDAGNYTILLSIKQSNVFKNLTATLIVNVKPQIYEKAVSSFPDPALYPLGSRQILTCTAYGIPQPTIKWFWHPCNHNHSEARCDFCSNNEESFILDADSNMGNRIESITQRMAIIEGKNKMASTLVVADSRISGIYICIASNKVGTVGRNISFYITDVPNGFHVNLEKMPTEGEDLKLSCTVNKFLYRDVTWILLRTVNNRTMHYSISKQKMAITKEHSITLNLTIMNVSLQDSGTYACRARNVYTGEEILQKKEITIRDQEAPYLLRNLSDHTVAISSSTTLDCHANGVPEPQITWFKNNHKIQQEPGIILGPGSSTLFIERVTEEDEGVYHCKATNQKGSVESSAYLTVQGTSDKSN
T3 sequence (P17948 27-1338): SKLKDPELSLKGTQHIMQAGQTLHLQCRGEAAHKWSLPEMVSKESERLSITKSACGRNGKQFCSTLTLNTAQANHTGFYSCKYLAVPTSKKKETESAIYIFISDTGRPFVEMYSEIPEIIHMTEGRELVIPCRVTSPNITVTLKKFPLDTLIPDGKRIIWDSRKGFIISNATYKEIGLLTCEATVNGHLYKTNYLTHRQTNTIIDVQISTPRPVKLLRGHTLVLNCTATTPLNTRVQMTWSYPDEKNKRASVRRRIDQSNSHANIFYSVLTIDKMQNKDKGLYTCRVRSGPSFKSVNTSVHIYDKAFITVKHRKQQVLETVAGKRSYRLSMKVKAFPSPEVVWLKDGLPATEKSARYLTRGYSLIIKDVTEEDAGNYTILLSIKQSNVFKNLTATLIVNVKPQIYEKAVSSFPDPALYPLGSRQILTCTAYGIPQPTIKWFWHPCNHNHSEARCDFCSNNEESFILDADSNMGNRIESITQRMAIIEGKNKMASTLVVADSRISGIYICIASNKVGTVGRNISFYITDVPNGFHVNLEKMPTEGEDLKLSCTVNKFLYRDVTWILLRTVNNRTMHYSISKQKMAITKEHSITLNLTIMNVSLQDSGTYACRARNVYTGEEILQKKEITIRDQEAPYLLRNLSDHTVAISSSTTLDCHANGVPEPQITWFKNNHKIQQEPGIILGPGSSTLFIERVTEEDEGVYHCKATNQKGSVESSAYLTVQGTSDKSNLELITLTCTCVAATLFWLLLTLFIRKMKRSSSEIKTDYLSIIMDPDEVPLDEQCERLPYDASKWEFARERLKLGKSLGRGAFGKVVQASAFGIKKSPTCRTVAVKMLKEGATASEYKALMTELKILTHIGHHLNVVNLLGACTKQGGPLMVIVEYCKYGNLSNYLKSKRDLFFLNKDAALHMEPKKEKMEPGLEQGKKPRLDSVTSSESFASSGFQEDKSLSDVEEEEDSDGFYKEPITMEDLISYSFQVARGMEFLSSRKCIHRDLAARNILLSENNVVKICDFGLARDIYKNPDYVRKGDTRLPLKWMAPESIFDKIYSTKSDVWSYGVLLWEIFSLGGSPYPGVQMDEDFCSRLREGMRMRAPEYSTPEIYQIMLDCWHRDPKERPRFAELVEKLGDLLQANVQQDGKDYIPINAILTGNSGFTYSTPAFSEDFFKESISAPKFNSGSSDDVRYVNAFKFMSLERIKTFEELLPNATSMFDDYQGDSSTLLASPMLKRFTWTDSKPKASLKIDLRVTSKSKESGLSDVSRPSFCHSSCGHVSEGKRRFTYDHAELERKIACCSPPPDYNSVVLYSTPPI
T4 sequence (P35968 20-1356): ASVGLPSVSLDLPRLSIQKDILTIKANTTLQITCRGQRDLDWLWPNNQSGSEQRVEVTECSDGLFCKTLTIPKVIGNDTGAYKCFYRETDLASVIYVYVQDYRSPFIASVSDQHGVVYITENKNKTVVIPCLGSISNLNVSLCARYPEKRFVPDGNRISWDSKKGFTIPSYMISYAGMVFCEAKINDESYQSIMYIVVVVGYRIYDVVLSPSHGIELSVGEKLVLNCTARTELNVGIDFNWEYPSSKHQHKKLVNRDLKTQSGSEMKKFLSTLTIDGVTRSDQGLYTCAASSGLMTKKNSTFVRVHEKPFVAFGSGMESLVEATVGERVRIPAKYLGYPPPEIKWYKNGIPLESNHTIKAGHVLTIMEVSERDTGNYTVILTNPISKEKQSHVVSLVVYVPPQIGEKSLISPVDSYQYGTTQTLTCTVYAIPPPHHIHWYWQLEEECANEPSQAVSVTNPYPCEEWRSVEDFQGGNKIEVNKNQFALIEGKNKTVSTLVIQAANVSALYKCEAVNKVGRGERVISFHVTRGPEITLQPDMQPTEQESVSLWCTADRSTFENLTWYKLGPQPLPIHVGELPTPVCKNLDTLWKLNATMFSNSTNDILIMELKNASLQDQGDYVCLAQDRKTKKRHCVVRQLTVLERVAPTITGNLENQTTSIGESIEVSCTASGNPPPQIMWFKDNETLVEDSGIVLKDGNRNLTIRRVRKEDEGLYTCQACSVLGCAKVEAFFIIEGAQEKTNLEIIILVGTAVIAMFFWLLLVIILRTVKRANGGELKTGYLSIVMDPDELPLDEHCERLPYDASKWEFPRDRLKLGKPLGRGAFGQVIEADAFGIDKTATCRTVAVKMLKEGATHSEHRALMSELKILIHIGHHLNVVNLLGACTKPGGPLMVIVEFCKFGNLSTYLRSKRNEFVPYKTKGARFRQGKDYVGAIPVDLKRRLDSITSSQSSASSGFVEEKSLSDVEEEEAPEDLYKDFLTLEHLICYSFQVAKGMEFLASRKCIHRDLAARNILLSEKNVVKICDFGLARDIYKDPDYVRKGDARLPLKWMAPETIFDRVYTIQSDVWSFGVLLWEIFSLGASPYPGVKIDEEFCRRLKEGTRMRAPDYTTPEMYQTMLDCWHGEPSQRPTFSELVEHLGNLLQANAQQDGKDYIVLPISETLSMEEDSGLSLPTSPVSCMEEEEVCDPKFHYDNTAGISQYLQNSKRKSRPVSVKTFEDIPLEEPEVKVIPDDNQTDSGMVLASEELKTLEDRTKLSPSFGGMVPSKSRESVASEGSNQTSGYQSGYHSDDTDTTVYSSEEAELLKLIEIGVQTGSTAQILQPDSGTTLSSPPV

Row | Binding affinity (Kd) to VEGFR-1 as determined by SPR [1] | Binding affinity (Kd) to VEGFR-2 as determined by SPR [2] | Selectivity for VEGFR2 (SPR binding) ([2]; VEGFR2 over VEGFR1) | Fluorescence with anti-VEGFR-2 antibody (VEGFR-2) | SMILES | Number of HUVECs migrating (Transwell) (HUVECs [3]) | Cell migration in wound healing assay (HUVECs [4]) | Capillary tube formation (HUVECs [5]) | Inhibition of phosphorylation of VEGFR-2 at low concentration (VEGFR-2 (P-VEGFR-2); 100 nM) | Phosphorylation of VEGFR-2 (P-VEGFR-2) (VEGFR-2 (P-VEGFR-2); 0.1, 0.5, 1, 10 μM) | Inhibition of phosphorylation of Akt at low concentration (Akt (P-AKT); 100 nM) | Phosphorylation of Akt (P-AKT) (Akt (P-AKT); 0.1, 0.5, 1, 10 μM) | Fluorescence with anti-VEGFR-1 antibody (VEGFR-1)
1 | submicromolar binding affinity | good binding affinities | – | – | CC(=O)N[C@@H](CCC(=O)O)CN(CC(=O)N[C@@H](CC(C)C)CN(CC(=O)N[C@@H](Cc1ccccc1)CN(CC(=O)N[C@@H](CCC(=O)O)CN(CC(=O)N[C@@H](Cc1ccc(O)cc1)CN(CC(=O)N[C@@H](CCCCN)CN(CC(=O)N[C@@H](Cc1ccc(O)cc1)CN(CC(=O)N[C@@H](C)CN(CC(N)=O)S(C)(=O)=O)S(C)(=O)=O)S(C)(=O)=O)S(=O)(=O)CCN)S(=O)(=O)CC(C)C)S(=O)(=O)CC(C)C)S(=O)(=O)CCN)S(=O)(=O)CCN [V2] | – | – | – | – | – | – | – | –
2 | good binding affinities | submicromolar binding affinity | remarkable selectivity | significant reduction of fluorescence | CC(=O)N[C@@H](CCC(=O)O)CN(CC(=O)N[C@@H](CC(C)C)CN(CC(=O)N[C@@H](Cc1c[nH]c2ccccc12)CN(CC(=O)N[C@@H](CCC(=O)O)CN(CC(=O)N[C@@H](Cc1ccc(O)cc1)CN(CC(=O)N[C@@H](CCCCN)CN(CC(=O)N[C@@H](Cc1ccc(O)cc1)CN(CC(=O)N[C@@H](C)CN(CC(N)=O)S(C)(=O)=O)S(C)(=O)=O)S(C)(=O)=O)S(=O)(=O)CCN)S(=O)(=O)CC(C)C)S(=O)(=O)CC(C)C)S(=O)(=O)CCN)S(=O)(=O)CCN [V3] | significantly lowered | virtually completely blocked wound motility | substantial inhibition of capillary tube formation | potent inhibition | dose-dependent inhibition of phosphorylation | potent inhibition | dose-dependent inhibition of phosphorylation | almost no effect on intensity of fluorescence
